Measurements as given in article PMC12644484 (Scientific Reports, 2025).
pIC50: −log10 of the molar value. Like-named read-outs stand apart in the source and are kept apart here.

Experiments:
RNaseH2 [1] = biological target: T1, RNaseH2 (Homo sapiens, UniProt O75792); conditions: read-out: RNaseH2 inhibition IC50, reported value; cited from earlier work
T1 construct: made in house; host or cells: E. coli BL21 (DE3) RIPL
T1 sequence (O75792 1-299): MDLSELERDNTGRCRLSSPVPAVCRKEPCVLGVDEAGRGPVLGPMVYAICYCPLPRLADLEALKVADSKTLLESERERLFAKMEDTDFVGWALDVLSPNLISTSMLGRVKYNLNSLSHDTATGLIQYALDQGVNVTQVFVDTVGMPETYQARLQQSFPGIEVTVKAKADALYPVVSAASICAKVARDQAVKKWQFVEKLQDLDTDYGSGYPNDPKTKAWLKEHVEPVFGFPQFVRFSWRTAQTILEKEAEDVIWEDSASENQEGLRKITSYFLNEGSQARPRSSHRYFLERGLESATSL
T1 sequence (Q5TBB1 1-312 partner): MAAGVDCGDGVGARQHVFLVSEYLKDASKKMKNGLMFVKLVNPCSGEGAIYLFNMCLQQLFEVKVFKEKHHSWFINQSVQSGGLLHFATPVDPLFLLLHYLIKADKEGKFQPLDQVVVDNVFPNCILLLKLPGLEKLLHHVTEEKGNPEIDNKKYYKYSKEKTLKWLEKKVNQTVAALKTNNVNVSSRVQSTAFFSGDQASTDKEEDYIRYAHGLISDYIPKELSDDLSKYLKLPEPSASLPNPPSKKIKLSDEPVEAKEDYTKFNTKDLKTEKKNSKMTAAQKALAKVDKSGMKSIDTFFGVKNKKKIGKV
T1 sequence (Q8TDP1 1-164 partner): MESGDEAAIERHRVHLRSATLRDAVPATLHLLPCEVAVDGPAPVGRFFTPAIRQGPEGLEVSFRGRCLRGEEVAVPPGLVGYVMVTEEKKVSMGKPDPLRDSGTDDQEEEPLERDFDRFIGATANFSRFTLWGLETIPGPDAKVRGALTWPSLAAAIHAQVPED

RNaseH2 [2] = biological target: T1, RNaseH2; assay: Fluorogenic RNaseH2 activity assay (RNA/DNA hybrid substrate); type: biochemical; conditions: fluorescence assay, four-parameter logistic fit; read-out: RNaseH2 inhibition IC50
Protocol: Briefly, a biochemical activity assay was established employing a duplex RNA/DNA oligonucleotide containing an internally quenched fluorophore and a single ribonucleotide positioned so that RNaseH2-mediated incision would lead to dissociation and de-quenching. […] To identify inhibitors, we screened several compound libraries containing a total of 71394 chemical compounds (Fig. 1c).
(a) RNaseH2 activity assay. An 80 nM RNA/DNA hybrid substrate was incubated with the indicated concentrations of RNaseH2, and fluorescence was recorded over 45 minutes. Each data point represents the average of four technical replicates. (b) RNaseH2 inhibition. […] Each data point denotes the average (± SD) of two technical replicates and was fitted to a four-parameter logistic curve. (c) High-throughput screening for RNaseH2 inhibitors. Each symbol represents one technical replicate of 71394 screening compounds, 9495 DMSO solvent controls, and 3552 no-enzyme controls. […] (d) Z’-factor of high-throughput screening assay. […] (e) Hit validation experiments on six candidate RNaseH2 inhibitors. […]
RNaseH2 activity assay was performed at room temperature in 384-well plates (black OptiPlates, PerkinElmer). […] The samples were incubated at room temperature for 20–30 min, and fluorescence was recorded using a Tecan SPARK plate reader at an excitation wavelength of 610[10] nm and emission wavelength of 670[20] nm.

pIC50 (RNaseH2 [2]): 5.25
Structure (SMILES): O=C(CSc1ncnc2sc3c(c12)CCCC3)NCc1ccco1 [RHI002, N-(2-Furanylmethyl)−2-[(5,6,7,8-tetrahydro[1]benzothieno[2,3-d]pyrimidin-4-yl)thio]-acetamide]
pIC50 (RNaseH2 [1]): 4.80
